# Read-outs that look alike come from different tables or passages of the source.
# How the values were obtained:
# [1] = Liver retinoids of Lrat-/- mice 3 h after gavage with all-trans-DROL; assay type: in vivo, mouse; details: 3 h post-gavage
# From the text: (§1) Metabolism of Retinoids in Vivo. All animal experiments employed procedures approved by the University of Washington and conformed to recommendations of the American Veterinary Medical Association Panel on Euthanasia and recommendations of the Association of Research for Vision and Ophthalmology. Animals were maintained on a 12-h light and 12-h dark cycle. All manipulations were done under dim red or infrared light (>560 nm). Most experiments used 6-12-week-old mice. Lrat−/− mice were genotyped as described previously. Batten, et al. J. Biol. Chem. 279:10422-10432, 2004. Animals were maintained on a control chow diet up to 1 h prior to oral gavage. The appropriate amount of all-trans-ROL palmitate, all-trans-DROL, or all-trans-RA was dissolved in vegetable oil and administered by oral gavage 3 h prior to analysis.
# (§2) Analysis of Retinoids. Liver (1 g) from retinoid gavaged or naive mice was homogenized in 2 ml of 137 mM NaCl, 2.7 mM KCl, and 10 mM sodium phosphate (pH 7.4) for 30 s using a Polytron homogenizer. 10 μl of 5 M NaOH was added to 3 ml of the ethanolic extract, and the nonpolar retinoids were extracted using 5 ml of hexane. The extraction was repeated, and the organic phases were combined, dried under vacuum, resuspended in hexane, and examined by normal phase HPLC using a normal phase column (Beckman Ultrasphere Si 5μ, 4.6×250 mm). […] The HPLC elution conditions were […], 100% buffer A for 40 min, 100% buffer B for 10 min, and 10 min equilibration in buffer A. The elution profiles of RA and DRA were monitored using an online diode array detector set at 350 and 290 nm, respectively. […] The measured area of absorbance was converted to picomoles based on a calibration of the HPLC columns using a known amount of all-trans-RA or all-trans-ROL (Sigma) and all-trans-DROL or all-trans-DRA (synthetic standards). The extraction efficiency was monitored by spiking a tissue sample with [^3H]RA (PerkinElmer Life Sciences) and monitoring the radioactivity recovered from the HPLC column. […]
# [2] = Liver retinoids of Lrat-/- mice 3 h after gavage with all-trans-ROL palmitate; assay type: in vivo, mouse; details: Lrat−/− (LRAT-deficient knockout), mouse, liver, oral, Lrat-/- mice, liver, 3 hr post-gavage, read-out: Level of liver retinoids 3 hr following gavage with ROL palmitate
# From the text: as §1
# Analysis of Retinoids. Liver (1 g) from retinoid gavaged or naive mice was homogenized in 2 ml of 137 mM NaCl, 2.7 mM KCl, and 10 mM sodium phosphate (pH 7.4) for 30 s using a Polytron homogenizer. 10 μl of 5 M NaOH was added to 3 ml of the ethanolic extract, and the nonpolar retinoids were extracted using 5 ml of hexane. The extraction was repeated, and the organic phases were combined, dried under vacuum, resuspended in hexane, and examined by normal phase HPLC using a normal phase column (Beckman Ultrasphere Si 5μ, 4.6×250 mm). The elution condition was an isocratic solvent system of 10% ethyl acetate in hexane (v/v) for 25 min at a flow rate of 1.4 ml/min at 20° C. with detection at 325 and 290 nm for the detection of nonpolar retinoids and 13,14-dihydroretinoids, respectively. The aqueous phase was acidified with 40 μl of 12 N HCl, and polar retinoids were extracted with 5 ml of hexane. The extraction was repeated, and the organic phases of the polar retinoid extractions were combined, dried, resuspended in solvent composed of 80% CH3CN, 10 mM ammonium acetate, 1% acetic acid, and examined by reverse phase HPLC. Analysis of polar retinoids from tissues was done by reverse phase HPLC using a narrowbore, 120-Å, 5-μm, 2.1×250 mm, Denali C18 column (Grace-Vydac, Hesperia, Calif.). The solvent system was composed of buffer A, 80% methanol, 20% 36 mM ammonium acetate (pH 4.7 adjusted with acetic acid), and buffer B, 100% methanol. The HPLC elution conditions were […], 100% buffer A for 40 min, 100% buffer B for 10 min, and 10 min equilibration in buffer A. The elution profiles of RA and DRA were monitored using an online diode array detector set at 350 and 290 nm, respectively. The peaks were identified based on their UV-visible spectra and/or coelution with synthetic or commercially available standards. The measured area of absorbance was converted to picomoles based on a calibration of the HPLC columns using a known amount of all-trans-RA or all-trans-ROL (Sigma) and all-trans-DROL or all-trans-DRA (synthetic standards). The extraction efficiency was monitored by spiking a tissue sample with [^3H]RA (PerkinElmer Life Sciences) and monitoring the radioactivity recovered from the HPLC column. In the case of liver samples the extraction efficiency was 95% or better. Mass spectrometry analyses of synthesized retinoids and of natural retinoids purified by HPLC were performed using a Kratos profile HV-3 direct probe mass spectrometer.
# [3] = Liver retinoids of Lrat-/- mice 3 h after gavage with all-trans-RA; assay type: in vivo, mouse; details: 3 h post-gavage
# From the text: as §1, §2
# [4] = target: T1, mouse RetSat (Mus musculus, UniProt Q64FW2); experiment: RetSat saturase activity in Tet-induced HEKK-RetSat cells; assay type: cell-based; details: 40 μM substrate, overnight incubation
# T1 construct: expressed in transfected cells
# T1 sequence (Q64FW2 26-609): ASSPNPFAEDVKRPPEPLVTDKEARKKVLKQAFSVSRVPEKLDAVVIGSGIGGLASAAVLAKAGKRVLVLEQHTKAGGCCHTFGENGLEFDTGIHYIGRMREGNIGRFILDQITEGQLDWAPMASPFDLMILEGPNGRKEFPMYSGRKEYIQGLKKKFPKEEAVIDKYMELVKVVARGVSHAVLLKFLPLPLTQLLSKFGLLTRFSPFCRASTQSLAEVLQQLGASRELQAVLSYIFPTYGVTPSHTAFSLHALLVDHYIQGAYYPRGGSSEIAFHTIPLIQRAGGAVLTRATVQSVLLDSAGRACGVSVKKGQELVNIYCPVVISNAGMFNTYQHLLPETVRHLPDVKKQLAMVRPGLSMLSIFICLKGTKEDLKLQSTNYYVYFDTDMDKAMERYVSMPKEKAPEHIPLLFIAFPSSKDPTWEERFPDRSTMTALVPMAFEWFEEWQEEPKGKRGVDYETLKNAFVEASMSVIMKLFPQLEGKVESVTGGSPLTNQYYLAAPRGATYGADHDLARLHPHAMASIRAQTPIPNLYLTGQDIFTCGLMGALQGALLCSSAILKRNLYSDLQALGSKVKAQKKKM
# Method: Enzyme assays of RetSat and CRTISO-catalyzed reactions. For enzyme assay, cells were seeded in six-well plates and expression of RetSat or CRTISO was induced with 1 μg/ml tetracycline 48 hr prior to analysis. Substrate preparation and addition were conducted under dim red light. Retinoid substrates were purified by HPLC as described above and dissolved in N,N-dimethylformamide (DMF) to a final concentration of 4 mM. Organic extract of tangerine tomatoes was dried under a stream of argon and resuspended in DMF. The substrates were diluted in 300 μl complete media (tetracycline 1 μg/ml) to a 40 μM final concentration, overlayed on cells, and incubated overnight in the dark at 37° C. in 5% CO2 and 100% humidity. Media and cells were collected by scraping, mixed with an equal volume of methanol. For retinol and dihydroretinol analysis the methanol:water mixture was extracted with two volumes of hexane, then the organic phase was dried, resuspended in hexane, and analyzed by normal-phase HPLC. […] For carotenoid analysis the organic phase was dried and resuspended in ethanol/tetrahydrofuran (9:1) and examined by reverse-phase HPLC System I. For retinoic acid analysis the 1:1 methanol:water mixture was acidified with 0.1 volumes of 12N HCl and extracted with 1 volume of chlorofom, dried and resuspended in ethanol and examined by reverse-phase HPLC System II.
# [5] = target: T2, tomato CRTISO (Solanum lycopersicum, UniProt Q8S4R4); experiment: CRTISO activity in transfected HEKK cells; assay type: cell-based; details: CRTISO-expressing cells, overnight, in the dark
# T2 construct: expressed in transfected cells
# T2 sequence (Q8S4R4 with tags, fused parts or gaps): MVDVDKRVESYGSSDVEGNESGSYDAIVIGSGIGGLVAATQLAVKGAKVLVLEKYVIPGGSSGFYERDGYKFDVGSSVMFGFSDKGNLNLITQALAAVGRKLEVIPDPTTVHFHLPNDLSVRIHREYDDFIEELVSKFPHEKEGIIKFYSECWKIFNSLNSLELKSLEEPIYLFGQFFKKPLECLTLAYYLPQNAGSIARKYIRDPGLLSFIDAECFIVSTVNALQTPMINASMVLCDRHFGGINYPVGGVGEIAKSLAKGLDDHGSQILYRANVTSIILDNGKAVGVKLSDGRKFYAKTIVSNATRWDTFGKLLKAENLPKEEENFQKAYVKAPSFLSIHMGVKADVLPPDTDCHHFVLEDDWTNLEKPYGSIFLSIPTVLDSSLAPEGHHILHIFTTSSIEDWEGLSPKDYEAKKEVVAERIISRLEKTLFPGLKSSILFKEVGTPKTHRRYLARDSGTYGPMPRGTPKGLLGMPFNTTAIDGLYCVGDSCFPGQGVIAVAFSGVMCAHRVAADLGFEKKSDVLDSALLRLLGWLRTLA
# Method: 7Z,9Z,9′Z,7′Z-Tetra-cis-tycopene purification and reverse-phase HPLC analysis of carotenoids. Carotenoid extraction and analysis were performed under dim red light. One gram from the fruit of a tangerine tomato was freeze-thawed three times and extracted with 2 ml PBS, 2 ml of ethanol, and 6 ml of hexane with the aid of a douncer. The organic phase was dried and resuspended in ethanol/tetrahydrofuran (9:1), and examined by reverse-phase HPLC System I (Prontosil, 200-3-C30, 3 μm, 4.6 mm×250 mm, Bischoff Chromatography, Leonberg, Germany) with a mobile phase of 75% tert-butyl methyl ether/25% methanol and a flow rate of 1 ml/min. More than 90% of the extract consisted of 7Z,9Z,9′Z,7′Z-tetra-cis-lycopene identified based on its published UV/VIS absorption spectrum in hexane with the following characteristics: shoulder at λ=417 nm, ε=90,000 M^−1cm^−1, λmax=437 nm, ε=105,000 M−1 cm^−1, shoulder at λ=461 nm ε=70,000 M^−1cm^−1. Bradford, Anal Biochem 72:248-254, 1976.
# Enzyme assays of RetSat and CRTISO-catalyzed reactions. For enzyme assay, cells were seeded in six-well plates and expression of RetSat or CRTISO was induced with 1 μg/ml tetracycline 48 hr prior to analysis. […] For retinol and dihydroretinol analysis the methanol:water mixture was extracted with two volumes of hexane, then the organic phase was dried, resuspended in hexane, and analyzed by normal-phase HPLC. […]
# [6] = target: T1, mouse RetSat; details: earlier report, Moise et al. 2004; cited from earlier work
compound,measurement,setting,value
"CC1=C(/C=C/C(C)=C/C=C/C(C)CO)C(C)(C)CCC1 (single isomer, unassigned) [C19-ROL, (3E,5E,7E)-2,6-dimethyl-8-(2,6,6-trimethylcyclohex-1-enyl)octa-3,5,7-trien-1-ol]",Level in liver after gavage with all-trans-DROL,[1],low levels
same,concentration at 3 h,[2]; 10^5 IU/kg body weight all-trans-ROL palmitate,200 ± 8 nM
same,concentration at 3 h,[2]; 10^6 IU/kg body weight all-trans-ROL palmitate,1800 nM
same,Formation in liver after gavage with all-trans-RA,[3],no evidence
"CC(C)=CCC/C(C)=C/C=C/C(C)=C/C=C/C(C)=C/C=C/C=C(C)/C=C/C=C(C)/C=C/C=C(\C)CCC=C(C)C [7Z,9Z,9′Z,7′Z-tetra-cis-lycopene]",Saturation by RetSat (substrate activity),[4],no difference
same,Conversion by CRTISO (substrate activity),[5],converted
"CC1=C(/C=C/C(C)=C\C=C\C(C)=C\C(=O)O)C(C)(C)CCC1 [9-cis-RA, 9-cis-retinoic acid]",Saturation by RetSat,[6],does not saturate
CC(C=CC1=C(C)C(=O)CCC1(C)C)=CC=CC(C)CC(=O)O (stereo not drawn) [all-trans-4-oxo-DRA],Level in liver after gavage with all-trans-DROL,[1],significant levels
same,Formation in liver after gavage with all-trans-RA,[3],no evidence

# From US20080249042A1, “All-Trans-Retinol: All-Trans-13,14-Dihydroretinol Saturase and Methods of Its Use” (UNIVERSITY OF WASHINGTON, priority 2004, published 2008)
